The values below come from US9340577B2, “HLA binding motifs and peptides and their uses” (priority 1992, dated 2016).

One test concerns the target A2.1 HLA molecules (Homo sapiens, UniProt P04439, D140Y/D185E/D98H/E176V/E277Q/G131W/G231S/I119V/I121R/I166T/I218V/L300P/L318F/N151K/N90K/P208A/P217A/Q86G/Q94H/R138H/R169H/T345S). Format: binding. Also noted: A*0201 / A2.1 Binding / A2 Bind. / A2 / A2.1 (binding capacity): scale not given here.
The target of the next test is HLA-A3.2 (A*0301) (Homo sapiens, UniProt P04439). Briefly: biochemical. Particulars: Table 164, MAGE peptides; binding value to HLA-A3.2, no unit given. Format: binding.
Another test has as its target HLA-A11 (A*1101) (Homo sapiens, UniProt P04439, A114D/D185E/E176A/F33Y/L180Q/S129P/T187R). Briefly: biochemical. Format: binding. Also noted: A11: unit not given here.
A further test deals with HLA-A*0201 (HLA-A2.1) (Homo sapiens, UniProt P04439, D140Y/D185E/D98H/E176V/E277Q/G131W/G231S/I119V/I121R/I166T/I218V/L300P/L318F/N151K/N90K/P208A/P217A/Q86G/Q94H/R138H/R169H/T345S). Briefly: biochemical. Format: binding.
Another test addresses DR7 (DRB1*0701) (Homo sapiens, UniProt P01903+P01911, A100R/A102G/A103Q/D57E/D86V/E43K/F76Y/K127E/L162R/M171V/P40G/Q125H/Q99D/R33Q/R42Y/R54Q/S133A/S66F/T210M/V115G/Y107V/Y59L/Y89S). Briefly: biochemical. Format: binding.
A further test concerns the target DRB5*0101 (Homo sapiens, UniProt P01903+Q30154). Briefly: biochemical.
A further test concerns the target DR4w4 (DRB1*0401) (Homo sapiens, UniProt P01903+P01911, A100K/A169T/F76Y/I96L/K127E/L162R/M171V/N62H/P40V/Q125Y/R42H/S133A/S149N/S66Y/V115G/V209L/W38E). Briefly: biochemical. Format: binding.
A further test addresses A*6802 (Homo sapiens, UniProt P04439, A269V/D140Y/D185E/E176V/E277Q/E87N/F33Y/G231S/I121R/I166T/I218V/L180W/L300P/L318F/N151K/P208A/P217A/Q86R/R138H/R169H/S129P/T345S/V36M). Briefly: biochemical. Format: binding.
A further test concerns the target DR1 (DRB1*0101) (Homo sapiens, UniProt P01903+P01911, A100R/D57E/F55L/F60I/F76Y/I96L/L162R/M171V/P40L/Q125E/R42F/V115G/Y59C). Briefly: biochemical. Format: binding.
The next test addresses DRB1*0802 (Homo sapiens, UniProt P01903+P01911, A100R/A103L/A169T/F76Y/H45Y/I96F/K41T/L162R/M171V/P40S/Q125H/Q178H/Q39Y/Q99D/R218S/R42G/S66Y/V115G/W38E). Briefly: biochemical. Format: binding.
The target in a further test is DRB1*1501 (Homo sapiens, UniProt P01903+P01911). Briefly: biochemical. Format: binding.
For a further test, the target named is DRB1*1302 (Homo sapiens, UniProt P01903+P01911, A100E/A169T/K41T/L162R/M171V/P40S/Q125H/Q178H/Q39Y/Q99D/R42S/S66N/T262R/V115G/W38E/Y61H). Nature of the test: biochemical. Format: binding.
The next test addresses DRB1*1101 (Homo sapiens, UniProt P01903+P01911, A100R/A169T/A87E/I96F/K41T/L162R/M171V/P40S/Q125H/Q178H/Q39Y/Q99D/R42S/S66Y/T262R/V115G/W38E). Briefly: biochemical.
The next test has as its target DRB1*0901 (Homo sapiens, UniProt P01903+P01911, A100R/A103E/D57H/D86V/F55Y/F60I/F76Y/I96F/K127E/L162R/M171V/P40D/Q125H/Q99R/R33Q/R42F/S133A/S66N/T210M/V115G/W38K/Y107V/Y59G/Y89S). Nature of the test: biochemical. Format: binding.
The next test addresses DRB4*0101 (Homo sapiens, UniProt P01903+P13762, G164S). Nature of the test: biochemical. Format: binding.

Where two headings read alike, the source gives them in different places. No end group written: not given here. Bounds are passed on as bounds.

Chain of DRB1*1302 (P01903 26-254 limits assumed, other chains not shown): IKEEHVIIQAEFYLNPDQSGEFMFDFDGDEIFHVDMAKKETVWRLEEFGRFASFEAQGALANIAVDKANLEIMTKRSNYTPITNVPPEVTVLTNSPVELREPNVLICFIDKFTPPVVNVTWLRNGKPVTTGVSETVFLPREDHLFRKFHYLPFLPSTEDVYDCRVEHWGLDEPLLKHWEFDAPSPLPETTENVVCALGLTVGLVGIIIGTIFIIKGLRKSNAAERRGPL
Chain of DRB1*1101 (P01903 26-254 limits assumed, other chains not shown): as above

With ALGLVCVQA, on A2.1 HLA molecules, the “A2 Bind.” value is 0.0150 and the “A2.1 relative binding (ratio of binding of test peptide relative to standard peptide)” value was 0.015. On HLA-A3.2 (A*0301), this compound displayed an A3.2 of less than 0.0002. This compound came in with an A11 at HLA-A11 (A*1101) of less than 0.0002. Moreover, the A2.1 at HLA-A*0201 (HLA-A2.1) came to 0.015.

Take FVNQHLCGSHLVEAL [Peptide 9000.0047]: the IC50 against DR7 (DRB1*0701) was determined as 6.79 µM.

Compound `CC[C@H](C)[C@H](NC(=O)[C@H](CC(N)=O)NC(=O)[C@H](C)NC(=O)[C@H](CC(=O)O)NC(=O)CNC(=O)[C@H](CCCCN)NC(=O)[C@H](CC(C)C)NC(=O)[C@H](Cc1c[nH]cn1)NC(=O)[C@@H](NC(=O)[C@@H](NC(=O)[C@@H]1CCCN1C(=O)[C@@H](NC(=O)[C@@H](N)[C@@H](C)O)[C@@H](C)O)[C@@H](C)CC)[C@@H](C)CC)C(=O)N[C@@H](CC(C)C)C(=O)N[C@@H](CCCCN)C(=O)O` [Peptide 1601.25] yielded an IC50 on DRB5*0101 (Binding affinity DRB5 *0101) greater than 20 µM.

Turning to “839.03 (AAAATKAAAA; also: non-natural residues (14), (35)) [Peptide 839.03]”, in the test with DR4w4 (DRB1*0401) (read-out: DRB1*0401), the IC50 is greater than 0.5 µM.

LQLPPLERLTV [Peptide 73.0158] returned an IC50 on A*6802 greater than 20 µM.

For “702.17 (AYAAAKA; also: non-natural residues (20)) [Peptide 702.17]”, the IC50 was determined as 0.25 µM in the test with DR4w4 (DRB1*0401) (read-out: DRB1*0401) and 8.33 µM with DR7 (DRB1*0701) (read-out: DRB1*0701).

Consider GKSYFGMSLIHFLKG [Peptide 89.0146], for which the IC50 on DR1 (DRB1*0101) was greater than 20 µM; on DR4w4 (DRB1*0401), 0.561 µM; on DRB1*0802, greater than 20 µM; at DRB5*0101 (Binding affinity DRB5 *0101) it was greater than 20 µM; against DRB1*1501 it was greater than 20 µM; against DRB1*1302, greater than 20 µM. In addition, the IC50 on DR7 (DRB1*0701), on DRB1*1101 (Binding affinity DRB1 *1101) and at DRB1*0901 was greater than 20 µM in each case.

On to ACSWGMVMLMLVRFK [Peptide 89.0043], for which the IC50 is 2.9 µM at DRB1*0802; 5.63 µM at DRB5*0101 (Binding affinity DRB5 *0101); 0.467 µM on DRB4*0101; greater than 20 µM against DR7 (DRB1*0701); 0.679 µM on DRB1*1101 (Binding affinity DRB1 *1101); 10.5 µM on DRB1*0901.

In turn, RTLHDLCQA [Peptide 1481.46] returned an IC50 against A*6802 greater than 20 µM.

With GVILYSDPADYFAPG [Peptide 68.0170], the IC50 on DRB1*0802 and at DRB1*1101 (Binding affinity DRB1 *1101) was greater than 20 µM in each case.

Ac-NPDAENWNSQFEILEDAA [Peptide 725.01]: the IC50 on DRB1*0802 was greater than 25 µM.

QYIKANSSFIGITE: at DR4w4 (DRB1*0401), the IC50 was found to be 0.013 µM.

Compound TLHDLCQAL [Peptide 1481.47] registered an IC50 against A*6802 greater than 20 µM.

In turn, Ac-NPTKHKWEAAHVAEQLAA [Peptide 724.01] showed an IC50 at DRB1*0802 of 25 µM.

`CC[C@H](C)[C@H](NC(=O)[C@@H](NC(=O)[C@H](CCSC)NC(=O)[C@H](Cc1ccc(O)cc1)NC(=O)CNC(=O)[C@@H](NC(=O)[C@H](CO)NC(=O)[C@@H](NC(=O)[C@H](CCC(N)=O)NC(=O)[C@@H](NC(=O)[C@H](CO)NC(=O)[C@H](CC(N)=O)NC(=O)[C@@H]1CCCN1C(=O)[C@@H](NC(=O)[C@@H](N)[C@@H](C)O)[C@@H](C)CC)C(C)C)[C@@H](C)CC)C(C)C)[C@@H](C)O)C(=O)O` [Peptide 1601.42]: the IC50 amounted to 0.016 µM against DRB4*0101, 0.01 µM against DRB1*1501 and 0.009 µM at DR7 (DRB1*0701).

At DRB5*0101 (DRB5*0101), TAEYGDKWLDAKSTWYGKPT [Peptide 620.02] yielded an IC50 of 10 µM.

In the case of CYSLYGTTLEQQYNK [Peptide 85.0004], on DRB1*0901, the IC50 is 26 µM.

For LHLLSNDMCARAYSE [Peptide 68.0140], the IC50 at DRB1*0802, on DRB5*0101 (Binding affinity DRB5 *0101), on DRB1*1501, on DR7 (DRB1*0701), at DRB1*1101 (Binding affinity DRB1 *1101) and against DRB1*0901 was greater than 20 µM each time.

The compound VTAKELKFV [Peptide 1418.24] showed an IC50 against A*6802 greater than 20 µM.

Consider `CC[C@H](C)[C@H](NC(=O)CNC(=O)[C@H](CCCNC(=N)N)NC(=O)[C@H](CCCNC(=N)N)NC(=O)[C@H](Cc1ccc(O)cc1)NC(=O)[C@H](C)NC(=O)[C@H](Cc1ccc(O)cc1)NC(=O)[C@@H](N)CCC(=O)O)C(=O)N[C@@H](C)C(=O)N[C@@H](CCC(=O)O)C(=O)N[C@@H](C)C(=O)N[C@H](C(=O)NCC(=O)N[C@@H](CC(C)C)C(=O)N1CCC[C@H]1C(=O)O)C(C)C` [Peptide 68.0100], for which the IC50 at DRB1*1501 was greater than 20 µM.

Compound AKSTWYGKPTGAGPKDNGGA [Peptide 620.03] showed an IC50 at DRB5*0101 (DRB5*0101) of 10 µM.

In the case of SEVYDFAFADLTVVY [Peptide 85.0024], the IC50 against DRB1*1302 and on DRB1*1101 (Binding affinity DRB1 *1101) was greater than 20 µM each time.

On to “730.15 (AAKAAAAAAAAA; also: non-natural residue (10)) [Peptide 730.15]”, for which the IC50 with DR4w4 (DRB1*0401) (read-out: DRB1*0401) is greater than 0.889 µM.

For the compound `CC[C@H](C)[C@H](NC(=O)[C@H](CCC(N)=O)NC(=O)[C@@H](NC(=O)[C@H](CO)NC(=O)[C@H](CC(=O)O)NC(=O)[C@@H]1CCCN1C(=O)[C@@H](NC(=O)[C@H](C)NC(=O)[C@@H](NC(=O)[C@@H](NC(=O)[C@H](CC(N)=O)NC(=O)[C@H](CC(C)C)NC(=O)[C@@H](N)Cc1ccccc1)[C@@H](C)O)C(C)C)[C@@H](C)CC)C(C)C)C(=O)N[C@@H](CC(C)C)C(=O)N[C@H](C(=O)O)C(C)C` [Peptide 1601.20], the IC50 on DRB1*0802 is greater than 20 µM; at DRB5*0101 (Binding affinity DRB5 *0101), greater than 20 µM; at DRB1*1302, 0.09 µM; at DRB1*1101 (Binding affinity DRB1 *1101), greater than 20 µM.

Consider IIHLKGDKNSLKCLR [90,0218], for which the IC50 against DRB1*0802 was 5.03 µM; at DR7 (DRB1*0701), greater than 20 µM; at DRB1*1101 ([…]) it was greater than 20 µM; on DRB1*0901, greater than 20 µM.

Consider SLHCKPEEA, for which, on A2.1 HLA molecules, the “A2 Bind.” value is on record as 0.0130 and the “A2.1 relative binding (ratio of binding of test peptide relative to standard peptide)” value came to 0.013. Further, the A3.2 on HLA-A3.2 (A*0301) is given as less than 0.0002. On HLA-A11 (A*1101), this compound displayed an A11 of 0. In addition, on HLA-A*0201 (HLA-A2.1), the A2.1 was 0.013.

As for “787.35 (AAIGFFFFKKGIA; also: non-natural residue (43)) [Peptide 787.35]”, the IC50 with DR4w4 (DRB1*0401) (read-out: DRB1*0401) amounted to 0.258 µM.

Consider Ac-AAAKAAAAAAYAA [Peptide 702.08], for which the IC50 against DR4w4 (DRB1*0401) is 0.348 µM.

As for “787.39 (AAIGGIFIFKKDA; also: non-natural residue (43)) [Peptide 787.39]”, the IC50 in the test with DR4w4 (DRB1*0401) (read-out: DRB1*0401) was 0.8 µM.

Regarding LLLPPLERLTL [Peptide 73.0157], at A*6802, the IC50 was greater than 20 µM.

Ac-AAAKAAAAAAFAA [Peptide 730.09]: the IC50 on DR4w4 (DRB1*0401) is 0.421 µM.

For the compound EIYIIEETTCTLVAG [Peptide 90.0251], the IC50 on DRB4*0101 was 1.1 µM; on DRB1*1302, 1.11 µM.
